The record followed here is ChEMBL document CHEMBL2146376, “'Inverted' analogs of the antibiotic gramicidin S with an improved biological profile” (Bioorg Med Chem, 2012).

Series [1] relates to Staphylococcus aureus. Kind of series: Antibacterial activity against Staphylococcus aureus ATCC 29213 after 24 hrs by broth dilution method. The format is functional. The note with it: ATCC 29213, 24 h.
Series [2] has as its system Staphylococcus epidermidis. Kind of series: Antibacterial activity against Staphylococcus epidermidis ATCC 12228 after 24 hrs by broth dilution method. The format is functional. The note with it: ATCC 12228, 24 h.
In the next series the test system is Enterococcus faecalis. Kind of series: Antibacterial activity against Enterococcus faecalis ATCC 29212 after 24 hrs by broth dilution method. The format is functional. The conditions noted are these: ATCC 29212, 24 h. (In general: Dilution methods test growth across graded concentrations, often in twofold steps.)
The subject of a further series is Bacillus cereus. The experiment in a line: Antibacterial activity against Bacillus cereus ATCC 11778 after 24 hrs by broth dilution method. The format is functional. The note with it: ATCC 11778, 24 h.
The next series deals with Escherichia coli. Kind of series: Antibacterial activity against Escherichia coli ATCC 25922 after 24 hrs by broth dilution method. The format is functional. The conditions noted are these: ATCC 25922, 24 h.
For another series, the system named is Pseudomonas aeruginosa. Kind of series: Antibacterial activity against Pseudomonas aeruginosa ATCC 27853 after 24 hrs by broth dilution method. The format is functional. The note with it: ATCC 27853, 24 h.
Series [3] concerns Staphylococcus aureus. The experiment in a line: Antibacterial activity against PVL-positive and non-typable methicillin-resistant Staphylococcus aureus 1110301981H-T034 after 24 hrs by broth dilution method. The class given is functional.
For series [4], the system named is Staphylococcus aureus. Kind of series: Antibacterial activity against PVL-deficient and non-typable methicillin-resistant Staphylococcus aureus N133-T034 after 24 hrs by broth dilution method. The class given is functional. The note with it: N133-T034, 24 h.
Series [5] concerns Staphylococcus aureus. The experiment in a line: Antibacterial activity against PVL-deficient and non-typable methicillin-resistant Staphylococcus aureus N229-T034 after 24 hrs by broth dilution method. The note with it: N229-T034, 24 h. The format is functional.
For series [6], the system named is Staphylococcus aureus. Kind of series: Antibacterial activity against PVL-positive and non-typable methicillin-resistant Staphylococcus aureus USA300-1110301146 after 24 hrs by broth dilution method. The format is functional. The note with it: USA300-1110301146, 24 h.
Series [7] can be described thus: Toxicity in human erythrocytes assessed as concentration required to achieve 100% hemolysis after 4 hrs. The conditions noted are these: erythrocyte. The class given is cell-based.

SMILES strings stand for the structures. In brackets after ≈: the same amount, converted by molar mass. Square brackets hold non-standard residues; d marks the D form. Peptide text beside a SMILES is read from it. Gly(1-adamantyl) = N[C@H](C(=O)O)C12CC3CC(CC(C3)C1)C2; Orn = NCCC[C@H](N)C(=O)O

For orientation: MIC means the lowest concentration that inhibits growth of the organism. Lower therefore signals a more susceptible organism. On to `CC(C)[C@@H]1NC(=O)[C@H](CCCN)NC(=O)[C@@H]2CCCN2C(=O)[C@@H](Cc2ccccc2)NC(=O)[C@H](CCCN)NC(=O)[C@H](C(C)C)NC(=O)[C@H](CCCN)NC(=O)[C@@H]2CCCN2C(=O)[C@@H](Cc2ccccc2)NC(=O)[C@H](CCCN)NC1=O`, for which the MIC in the series with Staphylococcus aureus [1] is more than 64 µg/mL; in series [2], 64 µg/mL (≈ 56 µM); against Enterococcus faecalis it was more than 64 µg/mL; in the series with Bacillus cereus, more than 64 µg/mL; in the series with Escherichia coli, more than 64 µg/mL; in the series on Pseudomonas aeruginosa, more than 64 µg/mL. The minimum inhibitory concentration (MIC) in the series with Staphylococcus aureus [3], in the series on Staphylococcus aureus [4], with Staphylococcus aureus [5] and against Staphylococcus aureus [6] was more than 64 µg/mL each time. Moreover, the Activity in series [7] was more than 500 µM.
Regarding `CC(C)C[C@@H]1NC(=O)[C@H](CCCN)NC(=O)[C@@H]2CCCN2C(=O)[C@@H](Cc2ccccc2)NC(=O)[C@H](CCCN)NC(=O)[C@H](CC(C)(C)C)NC(=O)[C@H](CCCN)NC(=O)[C@@H]2CCCN2C(=O)[C@@H](Cc2ccccc2)NC(=O)[C@H](CCCN)NC1=O`, the MIC is more than 64 µg/mL in the series on Staphylococcus aureus [1]; 16 µg/mL (≈ 13.5 µM) in [2]; more than 64 µg/mL with Enterococcus faecalis; more than 64 µg/mL in the series on Bacillus cereus; more than 64 µg/mL in the series on Escherichia coli; more than 64 µg/mL against Pseudomonas aeruginosa. The minimum inhibitory concentration (MIC) in the series with Staphylococcus aureus [3], against Staphylococcus aureus [4], in the series with Staphylococcus aureus [5] and in the series with Staphylococcus aureus [6] was more than 64 µg/mL each time. Further, the Activity in [7] was more than 500 µM.
For `CC(C)C[C@@H]1NC(=O)[C@H](CCCN)NC(=O)[C@H](C(C)C)NC(=O)[C@@H]2CCCN2C(=O)[C@@H](Cc2ccccc2)NC(=O)[C@H](CC(C)C)NC(=O)[C@H](CCCN)NC(=O)[C@H](C(C)C)NC(=O)[C@@H]2CCCN2C(=O)[C@@H](Cc2ccccc2)NC1=O` [GRAMICIDIN S] (cyclo(L[dF]PV[Orn]L[dF]PV[Orn])), the minimum inhibitory concentration (MIC) with Staphylococcus aureus [1] is 8 µg/mL (≈ 7.01 µM); in [2] it was 8 µg/mL (≈ 7.01 µM); in the series on Enterococcus faecalis it was 16 µg/mL (≈ 14 µM); with Bacillus cereus, 8 µg/mL (≈ 7.01 µM); in the series with Escherichia coli it was 32 µg/mL (≈ 28 µM); with Pseudomonas aeruginosa it was 64 µg/mL (≈ 56.1 µM). The MIC against Staphylococcus aureus [3], in the series with Staphylococcus aureus [4], in the series on Staphylococcus aureus [5] and with Staphylococcus aureus [6] was 8 µg/mL (≈ 7.01 µM) in each case. Also, the Activity in series [7] came out at 31.3 µM.
Consider `CCCCCCCCCC[C@@H]1NC(=O)[C@H](CCCN)NC(=O)[C@@H]2CCCN2C(=O)[C@@H](Cc2ccccc2)NC(=O)[C@H](CCCN)NC(=O)[C@H](CCCCCCCCCC)NC(=O)[C@H](CCCN)NC(=O)[C@@H]2CCCN2C(=O)[C@@H](Cc2ccccc2)NC(=O)[C@H](CCCN)NC1=O`, for which the minimal inhibitory concentration (MIC) came to 64 µg/mL (≈ 47.8 µM) against Staphylococcus aureus [1]; 4 µg/mL (≈ 2.99 µM) in series [2]; 32 µg/mL (≈ 23.9 µM) against Enterococcus faecalis; 8 µg/mL (≈ 5.97 µM) against Bacillus cereus; 64 µg/mL (≈ 47.8 µM) in the series on Escherichia coli; 64 µg/mL (≈ 47.8 µM) against Pseudomonas aeruginosa. Further, the MIC in the series with Staphylococcus aureus [3], with Staphylococcus aureus [4], against Staphylococcus aureus [5] and in the series with Staphylococcus aureus [6] was 64 µg/mL (≈ 47.8 µM) throughout. In series [7], the Activity came to 62.5 µM.
As for `CC(C)[C@@H]1NC(=O)[C@H](CCCN)NC(=O)[C@@H]2CCCN2C(=O)[C@@H](Cc2ccccc2)NC(=O)[C@H](CCCN)NC(=O)[C@H](C23CC4CC(CC(C4)C2)C3)NC(=O)[C@H](CCCN)NC(=O)[C@@H]2CCCN2C(=O)[C@@H](Cc2ccccc2)NC(=O)[C@H](CCCN)NC1=O`, the minimal inhibitory concentration (MIC) against Staphylococcus aureus [1] is 64 µg/mL (≈ 51.8 µM); in [2] it was 16 µg/mL (≈ 12.9 µM); against Enterococcus faecalis, more than 64 µg/mL; in the series with Bacillus cereus, 64 µg/mL (≈ 51.8 µM); against Escherichia coli, more than 64 µg/mL; against Pseudomonas aeruginosa, 64 µg/mL (≈ 51.8 µM). The minimum inhibitory concentration (MIC) against Staphylococcus aureus [3], against Staphylococcus aureus [4], in the series with Staphylococcus aureus [5] and against Staphylococcus aureus [6] was more than 64 µg/mL in each case. In series [7], the Activity was more than 500 µM.
Turning to `CC(C)C[C@@H]1NC(=O)[C@H](CCCN)NC(=O)[C@@H]2CCCN2C(=O)[C@@H](Cc2ccccc2)NC(=O)[C@H](CCCN)NC(=O)[C@H](CC(C)C)NC(=O)[C@H](CCCN)NC(=O)[C@@H]2CCCN2C(=O)[C@@H](Cc2ccccc2)NC(=O)[C@H](CCCN)NC1=O`, the minimal inhibitory concentration (MIC) in the series with Staphylococcus aureus [1] is more than 64 µg/mL; in series [2] it was 64 µg/mL (≈ 54.6 µM); in the series with Enterococcus faecalis, more than 64 µg/mL; against Bacillus cereus, more than 64 µg/mL; against Escherichia coli, more than 64 µg/mL; against Pseudomonas aeruginosa it was more than 64 µg/mL. Moreover, the Activity in series [7] is more than 500 µM.
As for `CC(C)(C)[C@@H]1NC(=O)[C@H](CCCN)NC(=O)[C@@H]2CCCN2C(=O)[C@@H](Cc2ccccc2)NC(=O)[C@H](CCCN)NC(=O)[C@H](C(C)(C)C)NC(=O)[C@H](CCCN)NC(=O)[C@@H]2CCCN2C(=O)[C@@H](Cc2ccccc2)NC(=O)[C@H](CCCN)NC1=O`, the minimum inhibitory concentration (MIC) against Staphylococcus aureus [1] is more than 64 µg/mL; in series [2], 64 µg/mL (≈ 54.6 µM); against Enterococcus faecalis, more than 64 µg/mL; against Bacillus cereus it was more than 64 µg/mL; against Escherichia coli, more than 64 µg/mL; in the series with Pseudomonas aeruginosa it was more than 64 µg/mL. Further, the MIC in the series on Staphylococcus aureus [3], in the series with Staphylococcus aureus [4], in the series with Staphylococcus aureus [5] and with Staphylococcus aureus [6] was more than 64 µg/mL each time. Besides, the Activity in series [7] was more than 500 µM.
On to `NCCC[C@@H]1NC(=O)[C@H](CC23CC4CC(CC(C4)C2)C3)NC(=O)[C@H](CCCN)NC(=O)[C@@H]2CCCN2C(=O)[C@@H](Cc2ccccc2)NC(=O)[C@H](CCCN)NC(=O)[C@H](CC23CC4CC(CC(C4)C2)C3)NC(=O)[C@H](CCCN)NC(=O)[C@@H]2CCCN2C(=O)[C@@H](Cc2ccccc2)NC1=O`, for which the MIC amounted to 8 µg/mL (≈ 5.9 µM) against Staphylococcus aureus [1]; 4 µg/mL (≈ 2.95 µM) in series [2]; 8 µg/mL (≈ 5.9 µM) against Enterococcus faecalis; 8 µg/mL (≈ 5.9 µM) with Bacillus cereus; 8 µg/mL (≈ 5.9 µM) in the series on Escherichia coli; 16 µg/mL (≈ 11.8 µM) against Pseudomonas aeruginosa. In addition, the minimum inhibitory concentration (MIC) in the series with Staphylococcus aureus [3], against Staphylococcus aureus [4], with Staphylococcus aureus [5] and in the series on Staphylococcus aureus [6] was 8 µg/mL (≈ 5.9 µM) in each case. Also, the Activity in series [7] was 62.5 µM.
On to `CC(C)[C@@H]1NC(=O)[C@H](CCCN)NC(=O)[C@@H]2CCCN2C(=O)[C@@H](Cc2ccccc2)NC(=O)[C@H](CCCN)NC(=O)[C@H](C(C)(C)C)NC(=O)[C@H](CCCN)NC(=O)[C@@H]2CCCN2C(=O)[C@@H](Cc2ccccc2)NC(=O)[C@H](CCCN)NC1=O`, for which the MIC against Staphylococcus aureus [1] was more than 64 µg/mL; in series [2] it was 64 µg/mL (≈ 55.3 µM); in the series on Enterococcus faecalis, more than 64 µg/mL; in the series with Bacillus cereus it was more than 64 µg/mL; against Escherichia coli it was more than 64 µg/mL; in the series on Pseudomonas aeruginosa, more than 64 µg/mL. Also, the MIC against Staphylococcus aureus [3], against Staphylococcus aureus [4], against Staphylococcus aureus [5] and with Staphylococcus aureus [6] was more than 64 µg/mL throughout. Also, the Activity in series [7] is more than 500 µM.
On to `NCCC[C@@H]1NC(=O)[C@H](C23CC4CC(CC(C4)C2)C3)NC(=O)[C@H](CCCN)NC(=O)[C@@H]2CCCN2C(=O)[C@@H](Cc2ccccc2)NC(=O)[C@H](CCCN)NC(=O)[C@H](C23CC4CC(CC(C4)C2)C3)NC(=O)[C@H](CCCN)NC(=O)[C@@H]2CCCN2C(=O)[C@@H](Cc2ccccc2)NC1=O` (cyclo([Orn][dF]P[Orn][Gly(1-adamantyl)][Orn][dF]P[Orn][Gly(1-adamantyl)])), for which the MIC against Staphylococcus aureus [1] amounted to 8 µg/mL (≈ 6.03 µM); in [2] it was 4 µg/mL (≈ 3.01 µM); in the series on Enterococcus faecalis, 8 µg/mL (≈ 6.03 µM); in the series on Bacillus cereus, 8 µg/mL (≈ 6.03 µM); with Escherichia coli, 8 µg/mL (≈ 6.03 µM); in the series with Pseudomonas aeruginosa it was 16 µg/mL (≈ 12.1 µM). For the same compound, the MIC against Staphylococcus aureus [3], in the series with Staphylococcus aureus [4], in the series on Staphylococcus aureus [5] and against Staphylococcus aureus [6] was 8 µg/mL (≈ 6.03 µM) throughout. Also, in series [7], the Activity worked out at 500 µM.
